Results published in paper PMC10525456, “A Comparative Study on Cyclodextrin Derivatives in Improving Oral Bioavailability of Etoricoxib as a Model Drug: Formulation and Evaluation of Solid Dispersion-Based Fast-Dissolving Tablets” (Biomedicines, 2023).
In brackets after ≈: the same amount, converted by molar mass. Where two headings read alike, the source gives them in different places.

Assay: Saturation solubility
Assay type: physicochemical
Experimental: For 48 h, a known excess of the samples (etoricoxib solid dispersions, physical mixtures, and pure etoricoxib) containing 10 mg of etoricoxib was mixed with 10 mL of phosphate buffer (pH = 6.8) and 0.1 N HCL (pH = 1.2) and placed in a constant-temperature rotating water bath (Gyromax—Frederick, MD, USA) set to 50 rpm (37 ± 0.5 °C). The samples were then filtered, diluted, and analyzed at 233 nm using a UV-VIS spectrophotometer (Shimadzu). The concentration of etoricoxib was then estimated. The experiment was carried out three times.

- solubility at 48 h (0.1 N HCl, pH 1.2, pure drug, 0.1 N HCL pH 1.2, 37 °C, read-out: Saturation solubility of pure etoricoxib in 0.1 N HCL pH(1.2)): 73.8 µg/mL (≈ 206 µM)
- solubility at 48 h (phosphate buffer, pH 6.8, pure drug, phosphate buffer pH 6.8, 37 °C, read-out: Saturation solubility of pure etoricoxib in Phosphate buffer pH(6.8)): 71.1 µg/mL (≈ 198 µM)
- Saturation solubility of pure etoricoxib in Phosphate buffer pH(6.8) (pure drug, phosphate buffer pH 6.8, 37 °C, 48 h): 71.12 μg/mL ± 1.23
SMILES: Cc1ccc(-c2ncc(Cl)cc2-c2ccc(S(C)(=O)=O)cc2)cn1 [Pure Etoricoxib, 5-chloro-6’-methyl-3-[4-(methylsulfonyl)phenyl]-2,3-bipyridine]
